One data set has as its system Pseudomonas aeruginosa. The data set can be described thus: Antibacterial activity against Pseudomonas aeruginosa ATCC 27853 assessed as inhibition of bacterial growth. In kind it is functional.
The target of a further data set is chymotrypsin (Homo sapiens, UniProt P17538+P40313+Q6GPI1+Q99895). The data set can be described thus: Proteolytic stability of compound assessed as chymotrypsin (unknown origin) mediated drug degradation by measuring compound remaining after 4 hrs by HPLC analysis. In kind it is ADME, protein assay. The following applies: read-out: Stability.
The nature of data set [1]: Cytotoxicity against mouse RAW264.7 cells. Type of data set: toxicity, cell-based.
Another data set has as its system Staphylococcus aureus. Put plainly: Antibacterial activity against Staphylococcus aureus ATCC 25923 assessed as inhibition of bacterial growth. Type of data set: functional.
In a further data set the test system is Klebsiella pneumoniae. The data set can be described thus: Antibacterial activity against Klebsiella pneumoniae ATCC 13883 assessed as inhibition of bacterial growth. In kind it is functional.
The next data set has as its system Salmonella typhimurium. Put plainly: Antibacterial activity against Salmonella typhimurium clinical isolate assessed as inhibition of bacterial growth. In kind it is functional, Salmonella enterica subsp. enterica serovar Typhimurium. The following applies: Salmonella enterica.
The subject of a further data set is Acinetobacter baumannii. Put plainly: Antibacterial activity against Acinetobacter baumannii ATCC 17978 assessed as inhibition of bacterial growth. Type of data set: functional.
A short description of data set [2]: Retention time of compound by HPLC analysis. In kind it is physicochemical.
Another data set relates to Escherichia coli. The data set can be described thus: Antibacterial activity against Escherichia coli ATCC 25922 assessed as inhibition of bacterial growth. Type of data set: functional.

Converted amounts (≈) assume the structure as drawn. Bridge positions count the residues as written; N and C are the ends. Square brackets hold non-standard residues; d marks the D form. Peptide text beside a SMILES is read from it. S5 = C=CCCC[C@](C)(N)C(=O)O

We go through 1 compound from ChEMBL document CHEMBL5550148, “Systematic alanine and stapling mutational analysis of antimicrobial peptide Chem-KVL” (Bioorg Med Chem Lett, 2024).

By MIC is commonly meant the lowest concentration found to suppress growth. By IC50 is commonly meant the midpoint of a concentration-inhibition curve. The low end stands for higher potency, the high end for lower potency. For the compound `CC(=O)N[C@@H](CCCCN)C(=O)N[C@H](C(=O)N[C@@H](CC(C)C)C(=O)NCC(=O)N[C@@H](CCCNC(=N)N)C(=O)N[C@@]1(C)CCC/C=C\CCC[C@@](C)(C(=O)NCC(=O)N[C@@H](CCCNC(=N)N)C(=O)N[C@@H](CC(C)C)C(=O)N[C@H](C(N)=O)C(C)C)NC(=O)[C@H](C(C)C)NC(=O)[C@H](CCCCN)NC(=O)[C@H](C(C)C)NC1=O)C(C)C` (Ac-KVLGR[S5]VKV[S5]GRLV-NH2; staple (Z) 6-10), the MIC came to 4 µg/mL (≈ 2.48 µM) with Pseudomonas aeruginosa; 2 µg/mL (≈ 1.24 µM) in the data set on Staphylococcus aureus; 64 µg/mL (≈ 39.6 µM) with Klebsiella pneumoniae; 64 µg/mL (≈ 39.6 µM) in the data set on Salmonella typhimurium; 16 µg/mL (≈ 9.91 µM) in the data set with Acinetobacter baumannii; 32 µg/mL (≈ 19.8 µM) in the data set on Escherichia coli. In addition, on chymotrypsin, the remaining at 4 h is greater than 70%. Also, the IC50 in data set [1] was found to be 2.95 µg/mL (≈ 1.83 µM). Also, the Time in data set [2] came to 26.5 min.
